Like-named read-outs stand apart in the source and are kept apart here.

The target in data set [1] is T1, MDR1 (Multidrug resistance protein 1) (Homo sapiens, UniProt P08183).
T1 construct: host or cells: MDCK cells
The data set can be described thus: MDCK-MDR1 assay (apparent permeability and efflux ratio). Format: in vitro ADME. The note with it: for Papp A→B at 2 h, 5 µM / Papp B→A at 2 h, 5 μM: MDCK-MDR1, pH 7.4, 2 hours at 37° C.; for Papp A→B at 2 h, 5 µM: apical to basolateral; for Papp B→A at 2 h, 5 μM: basolateral to apical; for efflux ratio at 2 h, 5 µM: MDCK-MDR1, pH 7.4, Papp B>A/Papp A>B. On the procedure: Apparent permeability and efflux ratios were generated by Absorption Systems LLP, Exton, PA MDCK cells transfected with human MDR1 (Multidrug resistance protein 1) were grown as monolayers on microporous membranes in 12-well assay plates. Each compound was evaluated at a single concentration equal to 5 μM. The assay buffer consisted of Hanks' balanced salt solution pH 7.4 containing 10 mM HEPES and 15 mM glucose. Test article diluted in assay buffer was dosed to the apical chambers of cell monolayer plates to determine apical to basolateral (A to B) permeability. Basolateral to apical (B to A) permeability was determined by addition of dosing solution to the basolateral chambers. […] Cell monolayers dosed with test article were incubated for 2 hours at 37° C., 5% CO2 in a humidified incubator. Samples were collected from both donor and receiver chambers at 2 hours then prepared for LC-MS/MS analysis using electrospray ionization. Duplicate measurements of A to B and B to A permeability were collected for each compound. Efflux ratio was calculated using the following formula: Papp B>A/Papp A>B. Controls were incorporated to ensure cell monolayer integrity (lucifer yellow) and activity of MDR1 protein (digoxin).

Data set [2] can be described thus: Rat pharmacokinetics (IV and PO). The format is in vivo, male Sprague-Dawley rats. The note with it: male, Sprague-Dawley, plasma; for Vd: read-out: Vdss; for half-life: read-out: T½ (converted); for Tmax: read-out: Tmax range. On the procedure: The pharmacokinetics of Compounds 1, 2, 3A, and 4A were assessed in male Sprague-Dawley rats following either intravenously (IV) or orally (PO) dosing. Sin-life portions of the studies were either conducted internally at Neurocrine Biosciences or contracted to Charles River Laboratories or Agilux Laboratories. All studies were performed according to good scientific principles and internal standard operating procedures (SOPs). However, the studies were exploratory in nature and were not conducted in accordance with the United States Food and Drug Administration (FDA) Good Laboratory Guidance (GLP) regulations.
Adult (8-9 weeks old) male rats were acclimated prior to dose administration. For dosing, rats were either dosed intravenously through the femoral vein or orally via oral gavage. Food and water were provided ad libitum during the acclimation period. The rats were maintained in a controlled temperature and humidity environment with a photoperiod with a 12 hour light to dark cycle. Rats were either dosed fed or fasted. In studies where the rats were fasted, rats were allowed access to food four hours post-dose.
For the IV bolus dose, compound was administered over a period of approximately 30 seconds using a 1 mL syringe via the femoral vein catheter. The IV dose was followed with a bolus of sterile saline (approximately 100 μL). For IV infusion doses, compound was administered using an IV infusion pump to deliver the total dose volume over 1 hour. Rats were connected to the infusion pump through catheter tubing that was connected to the femoral catheter prior to the infusion start. For the oral dose, compound was administered using flexible, polypropylene-shafted, silicone bulb shaped-tipped gavage (Instech Solomon plastic feeding tubes, 18 gauge×75 mm). Animals were periodically observed for eight hours following the dose administration for potential test article related effects.
Serial blood samples from IV and PO dosed rats (N=3 or 4) were collected out to 24 hours post-dose. For the time points up to 8 hours post dose, approximately 200 μL of whole blood was drawn from the jugular catheter or from the tail vein with a 1-mL syringe. The whole blood was transferred to a 600 μL Sarstedt collection tube that contained 1.2-2 mg EDTA-K3/mL of anticoagulant, gently mixed, and then centrifuged for 1.0 min at 13,000 rpm. Approximately 100 μL of plasma was aliquoted. Blood for the terminal time points at 24 hours were collected by […] with a syringe containing 1.6 mg EDTA-K3/mL of anticoagulant, transferred to an Eppendorf and immediately centrifuged for 1.0 min at 13,000 rpm. Approximately 300 μL of plasma was aliquoted. The aliquoted plasma samples were stored at −80° C. until analysis.
For IV and PO dose groups, descriptive pharmacokinetics were derived and evaluated based on the plasma concentrations from each individual rat. Pharmacokinetic parameters were determined using non-compartmental analysis (NCA) of plasma concentration-time profiles in Phoenix WinNonlin pharmacokinetic modeling software Professional (version 6.3; Pharsight Corporation). Nominal time was used for all timepoints unless otherwise indicated. Descriptive statistics (means, standard deviations and coefficient of variation) were also generated. Mean pharmacokinetic summaries of Compounds 1-4 following intravenous and PO dosing in Sprague Dawley rats were summarized in Tables 15 and 16.
Plasma samples of compounds 1, 2, 3A, and 4A were prepared by protein precipitation. Calibration standards and quality control plasma samples were prepared from the same lot of reference standard to quantify the concentration of the study samples. […]

Where [3] appears, read: IV infusion (1 hr), 2 mg/kg, HCl salt.
[4] abbreviates: iv, 1 mg/kg, IV bolus, 1 mg/kg, HCl salt.
[5] abbreviates: iv, 1 mg/kg, IV bolus, HCl salt.
Where [6] appears, read: iv, 2 mg/kg, IV infusion (1 hr), 2 mg/kg, HCl salt.
[7] abbreviates: iv, 2 mg/kg, IV infusion (1 hr), HCl salt.
[8] abbreviates: po, 10 mg/kg, PO 10 mg/kg, 1% Tween-80 in water (suspension).
The mark [9] stands for this setting: po, 10 mg/kg, PO 10 mg/kg, 10% PEG-400 in 0.5% MC (suspension).
The mark [10] stands for this setting: po, 10 mg/kg, PO 10 mg/kg, 10% PEG-400 in 0.5% MC in water (solution).
The mark [11] stands for this setting: PO 10 mg/kg, 10% PEG-400 in 0.5% MC in water (solution).
[12] abbreviates: po, 10 mg/kg, PO 10 mg/kg, 5% Tween-80 in 0.5% (w/v) MC in water (suspension).
Setting [13] is: iv, 2.5 mg/kg, IV bolus, HCl salt.
Where [14] appears, read: po, 10 mg/kg, PO 10 mg/kg, 30% PG, 20% PEG-400, 0.5% MC in water (solution).

With `C[C@@H]1CN(c2cnc(C(F)(F)F)cn2)C[C@H](C)N1C(=O)OCCC1CCN(Cc2ccccc2)CC1` [Compound 1, 2-(1-benzylpiperidin-4-yl)ethyl (2R,6S)-2,6-dimethyl-4-[5-(trifluoromethyl)pyrazin-2-yl]piperazine-1-carboxylate], in data set [1], the Papp A→B at 2 h, 5 µM was determined as 15 ×10⁻⁶ cm/s; the Papp B→A at 2 h, 5 μM was 21.3 ×10⁻⁶ cm/s; the efflux ratio at 2 h, 5 µM came out at 1.42. Also, in data set [2] (IV bolus, 1 mg/kg, HCl salt), the clearance worked out at 40.4 mL/min/kg and the Vd is 28.2 L/kg. Also, in data set [2] (setting [3]), the clearance is 15.8 mL/min/kg and the Vd was 12.1 L/kg. In data set [2] (PO 10 mg/kg, 10% PEG-400 in 0.5% MC (suspension)), the bioavailability worked out at 89.1%. In addition, the half-life in data set [2] (setting [4]) is 546 min. For the same molecule, in data set [2] (setting [5]), the AUC(0-inf) turned out to be 415 ng·h/mL and the AUC(0-t) was determined as 357 ng·h/mL. The half-life in data set [2] (setting [6]) was 612 min. Also, in data set [2] (setting [7]), the AUC(0-inf) turned out to be 1680 ng·h/mL and the AUC(0-t) came out at 1780 ng·h/mL. In addition, in data set [2] (setting [8]), the AUC(0-t) amounted to 3950 ng·h/mL, the peak level (Cmax) was 280 ng/mL and the Tmax came to 1 h. In addition, in data set [2] (setting [9]), the AUC(0-t) is 3180 ng·h/mL, the highest level (Cmax) was 164 ng/mL and the Tmax lay within 2 to 7.5 h. Besides, in data set [2] (setting [10]), the AUC(0-t) was 3150 ng·h/mL, the Cmax stood at 264 ng/mL and the Tmax was in the range of 0.5 to 1 h.
Regarding `C[C@@H]1CN(c2cnc(C(F)(F)F)cn2)C[C@@H](C)N1C(=O)NCCC1CCN(Cc2ccccc2)CC1` [Compound 4A], in data set [1], the Papp A→B at 2 h, 5 µM was found to be 0.55 ×10⁻⁶ cm/s; the Papp B→A at 2 h, 5 μM was 68.6 ×10⁻⁶ cm/s; the efflux ratio at 2 h, 5 µM amounted to 125. In data set [2] (IV bolus, 1 mg/kg, HCl salt), the clearance came out at 56.6 mL/min/kg and the Vd is 16.1 L/kg. In data set [2] (setting [11]), this molecule showed a bioavailability of 59.2%. In addition, the half-life in data set [2] (setting [4]) is 301 min. For the same molecule, in data set [2] (setting [5]), the AUC(0-inf) is 204 ng·h/mL and the AUC(0-t) was determined as 288 ng·h/mL. Moreover, in data set [2] (setting [12]), the AUC(0-inf) is 3500 ng·h/mL, the AUC(0-t) amounted to 2530 ng·h/mL, the Cmax was 231 ng/mL and the Tmax fell in the range of 1 to 8 h. For the same molecule, in data set [2] (setting [12]), the half-life is 425 min. Further, in data set [2] (setting [10]), the area under the curve AUC(0-inf) amounted to 1740 ng·h/mL, the exposure AUC(0-t) came to 1700 ng·h/mL, the peak level (Cmax) was 182 ng/mL and the Tmax lay in the range of 0.5 to 2 h. For the same molecule, the half-life in data set [2] (setting [10]) was 252 min.
In the case of `C[C@@H]1CN(c2ncc(C#N)cn2)C[C@H](C)N1C(=O)NCCC1CCN(Cc2ccccc2)CC1` [Compound 3A], in data set [1], the Papp A→B at 2 h, 5 µM worked out at 0.53 ×10⁻⁶ cm/s; the Papp B→A at 2 h, 5 μM turned out to be 51.2 ×10⁻⁶ cm/s; the efflux ratio at 2 h, 5 µM was determined as 96.6. Also, in data set [2] (IV bolus, 2.5 mg/kg, HCl salt), the clearance was 47.5 mL/min/kg and the Vd was 4.37 L/kg. In data set [2] (PO 10 mg/kg, 30% PG, 20% PEG-400, 0.5% MC in water (solution)), the bioavailability was 43.7%. For the same molecule, the half-life in data set [2] (iv, 2.5 mg/kg, IV bolus, 2.5 mg/kg, HCl salt) was 117 min. Further, in data set [2] (setting [13]), the AUC(0-inf) was 882 ng·h/mL and the AUC(0-t) stood at 854 ng·h/mL. For the same molecule, in data set [2] (setting [12]), the area under the curve AUC(0-inf) is 1150 ng·h/mL, the exposure AUC(0-t) was 1500 ng·h/mL, the Cmax came to 205 ng/mL and the Tmax lay in the range of 0.5 to 4 h. Also, in data set [2] (setting [12]), the half-life was 193 min. Moreover, in data set [2] (setting [14]), the AUC(0-inf) is 1540 ng·h/mL, the AUC(0-t) worked out at 1400 ng·h/mL, the highest level (Cmax) was 247 ng/mL and the Tmax lay within 0.5 to 2 h. Further, the half-life in data set [2] (setting [14]) was 219 min.
For the molecule `C[C@@H]1CN(c2cnc(C(F)(F)F)cn2)C[C@@H](C)N1C(=O)OCCC1CCN(Cc2ccccc2)CC1` [Compound 2, 2-(1-benzylpiperidin-4-yl)ethyl (2R,6R)-2,6-dimethyl-4-[5-(trifluoromethyl)pyrazin-2-yl]piperazine-1-carboxylate], in data set [1], the apical-to-basolateral permeability (Papp A→B) at 2 h, 5 µM came out at 17.5 ×10⁻⁶ cm/s; the Papp B→A at 2 h, 5 μM stood at 24.1 ×10⁻⁶ cm/s; the efflux ratio at 2 h, 5 µM was 1.38. Further, in data set [2] (setting [3]), the clearance stood at 44.9 mL/min/kg and the Vd amounted to 36 L/kg. This molecule also registered a bioavailability in data set [2] (setting [11]) of 81.4%. Moreover, in data set [2] (setting [6]), the half-life is 660 min. Moreover, in data set [2] (setting [7]), the AUC(0-inf) is 747 ng·h/mL and the AUC(0-t) turned out to be 613 ng·h/mL. For the same molecule, in data set [2] (setting [10]), the AUC(0-inf) came to 3040 ng·h/mL, the AUC(0-t) is 2190 ng·h/mL, the Cmax was determined as 130 ng/mL and the Tmax lay in the range of 2 to 7.5 h. In addition, the half-life in data set [2] (setting [10]) is 774 min.

What is called Papp A→B is the apparent permeability from the apical to the basolateral side of a cell layer. What is called Papp B→A is how fast a substance crosses the layer from the basolateral side. In general, efflux ratio refers to a quotient of directional permeabilities that is used to spot active efflux. A word on the bioavailability: it is dose-corrected exposure relative to a reference, in per cent. Low readings indicate little systemic uptake, high ones much systemic uptake. For orientation: AUC(0-inf) means the area under the concentration-time curve extrapolated to infinity. For orientation: AUC(0-t) means the area under the concentration-time curve up to a stated or last time point. Usually Cmax stands for the maximum level reached in the sampled fluid or tissue. In general, Tmax refers to the time at which the peak concentration occurs.

The values are drawn from patent US12486250B2, “Muscarinic receptor 4 antagonists and methods of use” (Neurocrine Biosciences, Inc., priority 2019, dated 2025).
